Here are results for 17 molecules from US12441768B2, “Compositions and methods for treating endometriosis” (EndoMet Biosciences, Inc., priority 2018, dated 2025).

Where a SMILES comes first, the peptide text is derived from it.

The assay has as its target T1, β-catenin (Homo sapiens, UniProt P35222).
T1 sequence (P35222 1-781): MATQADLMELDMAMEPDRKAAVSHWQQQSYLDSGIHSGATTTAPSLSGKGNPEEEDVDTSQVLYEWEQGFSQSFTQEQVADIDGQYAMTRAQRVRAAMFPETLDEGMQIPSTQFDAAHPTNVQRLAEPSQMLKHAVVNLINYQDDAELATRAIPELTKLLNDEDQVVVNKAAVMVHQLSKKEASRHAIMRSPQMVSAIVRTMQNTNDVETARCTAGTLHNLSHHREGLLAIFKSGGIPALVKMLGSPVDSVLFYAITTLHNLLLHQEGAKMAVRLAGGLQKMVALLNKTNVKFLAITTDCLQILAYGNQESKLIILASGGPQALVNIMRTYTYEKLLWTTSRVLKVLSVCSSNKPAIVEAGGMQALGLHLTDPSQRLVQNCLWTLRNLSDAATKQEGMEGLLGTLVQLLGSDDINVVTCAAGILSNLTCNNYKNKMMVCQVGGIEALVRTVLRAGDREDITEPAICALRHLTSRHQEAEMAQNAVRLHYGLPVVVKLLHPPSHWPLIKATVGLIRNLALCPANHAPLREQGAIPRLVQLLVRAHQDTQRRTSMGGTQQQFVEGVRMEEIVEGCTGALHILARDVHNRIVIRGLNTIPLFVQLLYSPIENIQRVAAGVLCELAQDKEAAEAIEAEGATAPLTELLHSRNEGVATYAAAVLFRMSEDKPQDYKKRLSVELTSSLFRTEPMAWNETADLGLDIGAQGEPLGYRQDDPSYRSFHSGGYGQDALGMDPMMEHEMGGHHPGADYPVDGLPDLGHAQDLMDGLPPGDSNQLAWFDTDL
Put plainly: KD50 measurement using competitive fluorescence polarization (FP) with labelled TCF4. Format: binding. As to conditions: fluorescence polarization, β-catenin; for Kd: read-out: β-Cat FP KD. A digest of the protocol: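 First, β-catenin at 100 nM is mixed with 5 nM labelled TCF4 at room temperature. Next, compound is added across serial dilutions (10 nM to 30 uM). Finally, fluorescence polarization is measured (ex 470 nm, em 520 nm); experiments are done three times.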
Background: Fluorescence polarisation rises when a labelled molecule tumbles more slowly, as on binding a larger partner.

As a reminder, the Kd is the constant that tells how readily two partners part at equilibrium. As to `CC[C@H](C)[C@@H]1NC(=O)[C@H](CC(C)C)NC(=O)[C@H](Cc2ccccc2)NC(=O)[C@H](Cc2c[nH]c3ccccc23)NC(=O)[C@@H](N)CCCCNC(=O)CCCNC(=O)C[C@@H](C(=O)O)NC(=O)[C@H](Cc2c[nH]c3ccccc23)NC(=O)[C@H](C)NC(=O)[C@H](CS)NC1=O` [compound 247] (HELM PEPTIDE1{K.W.F.L.I.C.A.W.[O=C(O)[C@H](CC(=O)[*:2])N[*:1]].[O=C(CCCN[*:1])[*:2]]}$PEPTIDE1,PEPTIDE1,1:R3-10:R2$$$V2.0), the “β-Cat FP Hill slope” value is listed as 2.34 and the Kd is less than 0.4 µM.
On to `CC[C@H](C)[C@@H]1NC(=O)[C@H](CC(C)C)NC(=O)[C@H](Cc2ccccc2)NC(=O)[C@H](Cc2c[nH]c3ccccc23)NC(=O)[C@@H](N)CCCCNC(=O)CCCCNC(=O)C[C@@H](C(=O)O)NC(=O)[C@H](Cc2c[nH]c3ccccc23)NC(=O)[C@H](C)NC(=O)[C@H](CS)NC1=O` [compound 248] (HELM PEPTIDE1{K.W.F.L.I.C.A.W.[O=C(O)[C@H](CC(=O)[*:2])N[*:1]].[O=C(CCCCN[*:1])[*:2]]}$PEPTIDE1,PEPTIDE1,1:R3-10:R2$$$V2.0), for which the dissociation constant Kd is more than 30 µM.
`CC[C@H](C)[C@@H]1NC(=O)[C@H](CC(C)C)NC(=O)[C@H](Cc2ccccc2)NC(=O)[C@H](Cc2c[nH]c3ccccc23)NC(=O)[C@@H](N)CCCCNC(=O)CCCCCNC(=O)C[C@@H](C(=O)O)NC(=O)[C@H](Cc2c[nH]c3ccccc23)NC(=O)[C@H](C)NC(=O)[C@H](CS)NC1=O` [compound 249] (HELM PEPTIDE1{K.W.F.L.I.C.A.W.[O=C(O)[C@H](CC(=O)[*:2])N[*:1]].[O=C(CCCCCN[*:1])[*:2]]}$PEPTIDE1,PEPTIDE1,1:R3-10:R2$$$V2.0): the “β-Cat FP Hill slope” value amounted to 0.92 and the Kd is 0.4 to 1 µM.
Consider `CC[C@H](C)[C@@H]1NC(=O)[C@H](CC(C)C)NC(=O)[C@H](Cc2ccccc2)NC(=O)[C@H](Cc2c[nH]c3ccccc23)NC(=O)CCCCCCCCCNC(=O)[C@H](Cc2c[nH]c3ccccc23)NC(=O)[C@H](C)NC(=O)[C@H](CS)NC1=O` [compound 250] (HELM PEPTIDE1{A.W.[O=C(CCCCCCCCCN[*:1])[*:2]].W.F.L.I.C}$PEPTIDE1,PEPTIDE1,1:R1-8:R2$$$V2.0), for which the Kd is 1 to 10 µM.
The same measure, in the same setting: as for `CC[C@H](C)[C@@H]1NC(=O)[C@H](CC(C)C)NC(=O)[C@@H](N)CCCCNC(=O)C[C@@H](C(=O)O)NC(=O)[C@H](Cc2c[nH]c3ccccc23)NC(=O)[C@H](Cc2ccccc2)NC(=O)[C@H](C)NC1=O` [compound 251] (HELM PEPTIDE1{K.L.I.A.F.W.D}$PEPTIDE1,PEPTIDE1,1:R3-7:R3$$$V2.0), the figure is more than 30 µM; as for `CC[C@H](C)[C@@H]1NC(=O)[C@H](CC(C)C)NC(=O)[C@@H](NC(C)=O)CCCCNC(=O)C[C@@H](C(=O)O)NC(=O)[C@H](Cc2c[nH]c3ccccc23)NC(=O)[C@H](Cc2ccccc2)NC(=O)[C@H](C)NC1=O` [compound 252] (HELM PEPTIDE1{[ac].K.L.I.A.F.W.D}$PEPTIDE1,PEPTIDE1,2:R3-8:R3$$$V2.0), more than 30 µM.
Turning to `CC[C@H](C)[C@@H]1NC(=O)[C@H](CC(C)C)NC(=O)[C@H](Cc2ccccc2)NC(=O)[C@@H](N)CCCCNC(=O)C[C@@H](C(=O)O)NC(=O)[C@H](Cc2c[nH]c3ccccc23)NC(=O)[C@H](Cc2ccccc2)NC(=O)[C@H](C)NC1=O` [compound 253] (HELM PEPTIDE1{K.F.L.I.A.F.W.D}$PEPTIDE1,PEPTIDE1,1:R3-8:R3$$$V2.0), the Kd is more than 30 µM.
On the same count and under the same terms, to `CC[C@H](C)[C@@H]1NC(=O)[C@H](CC(C)C)NC(=O)[C@H](Cc2ccccc2)NC(=O)[C@@H](NC(C)=O)CCCCNC(=O)C[C@@H](C(=O)O)NC(=O)[C@H](Cc2c[nH]c3ccccc23)NC(=O)[C@H](Cc2ccccc2)NC(=O)[C@H](C)NC1=O` [compound 254] (HELM PEPTIDE1{[ac].K.F.L.I.A.F.W.D}$PEPTIDE1,PEPTIDE1,2:R3-9:R3$$$V2.0) belongs more than 30 µM; to `CC[C@H](C)[C@@H]1NC(=O)[C@H](CC(C)C)NC(=O)[C@H](CC2CCCCC2)NC(=O)[C@H](Cc2c[nH]c3ccccc23)NC(=O)[C@@H](NC(C)=O)CCCCNC(=O)C[C@@H](C(=O)O)NC(=O)[C@H](Cc2c[nH]c3ccccc23)NC(=O)[C@H](C)NC(=O)[C@H](CO)NC1=O` [compound 255] (HELM PEPTIDE1{[ac].K.W.[Cha].L.I.S.A.W.D}$PEPTIDE1,PEPTIDE1,2:R3-10:R3$$$V2.0), more than 30 µM.
As for `CC[C@H](C)[C@@H]1NC(=O)[C@H](CC(C)C)NC(=O)[C@H](Cc2ccccc2)NC(=O)[C@H](Cc2c[nH]c3ccccc23)NC(=O)[C@@H](N)CCCCNC(=O)CCNC(=O)C[C@@H](C(=O)O)NC(=O)[C@H](Cc2c[nH]c3ccccc23)NC(=O)[C@H](C)NC(=O)[C@H](CS)NC1=O` [compound 260] (HELM PEPTIDE1{K.W.F.L.I.C.A.W.[O=C(O)[C@H](CC(=O)[*:2])N[*:1]].[bAla]}$PEPTIDE1,PEPTIDE1,1:R3-10:R2$$$V2.0), the “β-Cat FP Hill slope” value came out at 1.53 and the Kd fell in the range of 1 to 10 µM.
As to `CC[C@H](C)[C@H](NC(=O)[C@H](CC(C)C)NC(=O)[C@@H](NC(=O)[C@H](Cc1c[nH]c2ccccc12)NC(C)=O)[C@@H](C)CC)C(=O)N[C@@H](C)C(=O)N[C@@H](Cc1ccccc1)C(=O)N[C@@H](Cc1c[nH]c2ccccc12)C(=O)NCC(=O)O` [compound 263] (Ac-WILIAFWG-OH), the “β-Cat FP Hill slope” value was determined as 3 and the Kd lay within 0.4 to 1 µM.
Consider `CC[C@H](C)[C@H](NC(=O)[C@H](CC(C)C)NC(=O)[C@@H](NC(=O)[C@H](Cc1c[nH]c2ccccc12)NC(=O)[C@H](CCSC)N(C)C)[C@@H](C)CC)C(=O)N[C@@H](CO)C(=O)N[C@@H](Cc1ccccc1)C(=O)N[C@@H](Cc1c[nH]c2ccccc12)C(=O)NCC(=O)O` [compound 264] (HELM PEPTIDE1{[CSCC[C@@H](C(=O)[*:2])N(C)C].W.I.L.I.S.F.W.G}$$$$V2.0), for which the “β-Cat FP Hill slope” value came to 0.7 and the Kd is 1 to 10 µM.
In the case of `CC[C@H](C)[C@H](NC(=O)[C@H](CC(C)C)NC(=O)[C@@H](NC(=O)[C@@H](N)Cc1c[nH]c2ccccc12)[C@@H](C)CC)C(=O)N[C@@H](C)C(=O)N[C@@H](Cc1ccccc1)C(=O)N[C@@H](Cc1c[nH]c2ccccc12)C(=O)NCC(=O)O` [compound 265] (H-WILIAFWG-OH), the “β-Cat FP Hill slope” value is given as 0.7 and the Kd was 1 to 10 µM.
Take `CC[C@H](C)[C@H](NC(=O)[C@H](CC(=O)O)NC(=O)[C@H](CCCNC(=N)N)NC(=O)[C@H](CC(C)C)NC(=O)[C@@H](NC(=O)[C@H](CCC(N)=O)NC(=O)[C@H](CC(C)C)NC(=O)[C@H](CO)NC(=O)[C@H](CCCNC(=N)N)NC(=O)[C@H](CCC(=O)O)NC(=O)[C@H](CCCNC(=N)N)NC(=O)[C@H](Cc1c[nH]cn1)NC(=O)[C@H](CCC(=O)O)NC(=O)[C@H](CC(C)C)NC(=O)[C@H](CCC(N)=O)NC(=O)[C@H](CCC(=O)O)NC(=O)[C@H](CCC(N)=O)NC(=O)[C@H](CO)NC(=O)[C@H](CC(C)C)NC(=O)CNC(=O)[C@H](CC(=O)O)NC(=O)[C@@H]1CCCN1C(=O)[C@H](CC(N)=O)NC(C)=O)[C@@H](C)O)C(=O)N[C@@H](CCC(N)=O)C(=O)N[C@@H](CCCNC(=N)N)C(=O)N[C@@H](CCSC)C(=O)N[C@@H](CC(C)C)C(=O)N[C@@H](Cc1ccccc1)C(=O)N1CCC[C@H]1C(=O)N[C@@H](CC(=O)O)C(=O)N[C@@H](CCC(=O)O)C(=O)N[C@@H](CCCCN)C(=O)N[C@@H](CCC(=O)O)C(=O)N[C@@H](Cc1ccccc1)C(=O)N[C@H](C(=O)NCCC(=O)NCCC(=O)N[C@@H](CCCCN)C(N)=O)[C@@H](C)O` [compound 270]: the Kd was more than 30 µM.
In the case of `CC[C@H](C)[C@@H]1NC(=O)[C@H](CC(C)C)NC(=O)[C@H](Cc2ccccc2)NC(=O)[C@H](Cc2c[nH]c3ccccc23)NC(=O)[C@@H](N)CCCCNC(=O)CC[C@@H](C(=O)NCC(=O)O)NC(=O)[C@H](Cc2c[nH]c3ccccc23)NC(=O)[C@H](Cc2ccccc2)NC(=O)[C@H](CS)NC1=O` [compound 272] (HELM PEPTIDE1{K.W.F.L.I.C.F.W.E.G}$PEPTIDE1,PEPTIDE1,1:R3-9:R3$$$V2.0), the “β-Cat FP Hill slope” value came to 0.84 and the Kd was in the range of 1 to 10 µM.
Turning to `CC[C@H](C)[C@H](NC(=O)[C@H](CC(C)C)NC(=O)[C@H](Cc1ccccc1)NC(=O)[C@H](Cc1c[nH]c2ccccc12)NC(=O)[C@H](CCSC)NC(C)=O)C(=O)N[C@@H](C)C(=O)N[C@@H](Cc1ccccc1)C(=O)N[C@@H](Cc1c[nH]c2ccccc12)C(=O)NCC(=O)O` [compound 274] (Ac-MWFLIAFWG-OH), the “β-Cat FP Hill slope” value turned out to be 2.2 and the Kd was less than 0.4 µM.
For `CC[C@H](C)[C@@H]1NC(=O)[C@H](CC(C)C)NC(=O)[C@H](Cc2ccc(O)cc2)NC(=O)[C@H](Cc2c[nH]c3ccccc23)NC(=O)[C@H](CCSC)NC(=O)[C@H](CCCNC(=N)N)NC(=O)[C@H](CO)NC(=O)[C@@H](N)CCCNC(=O)[C@H](Cc2c[nH]c3ccccc23)NC(=O)[C@H](Cc2ccccc2)NC(=O)[C@H](CO)NC1=O` [compound 277] (HELM PEPTIDE1{[Orn].S.R.M.W.Y.L.I.S.F.W}$PEPTIDE1,PEPTIDE1,1:R3-11:R2$$$V2.0) the same measures were 0.7 and more than 30 µM.
